Data published in patent publication US20220133717A1, “RABEXIMOD IN THE TREATMENT OF RHEUMATOID ARTHRITIS” (CYXONE AB, priority 2020, published 2022).

What was measured:
[1] = system: healthy male volunteers; experiment: Phase 1 clinical trial: safety and tolerability of single and multiple oral rising doses; type: in vivo, human
From the text: The Phase 1 study assessed the safety, tolerability, pharmacokinetics and pharmacodynamics of single and multiple oral rising doses of Rabeximod (in a capsule formulation) in healthy male volunteers. The study also included an open-label, randomised, two-period crossover part that was designed to investigate the effect of food on the pharmacokinetics of Rabeximod. In total, 87 healthy male subjects were enrolled into the study.

[2] = system: patients with moderate or severe active rheumatoid arthritis; experiment: Phase II clinical trial: efficacy (ACR20/50, DAS28, EULAR response, ACR components); type: in vivo, human
Description: The primary objective of this study was to evaluate the efficacy (American College of Rheumatology 20) of Rabeximod administered orally once daily for 12 weeks in combination with a stable dose of methotrexate in patients with moderate or severe active rheumatoid arthritis. Efficacy was evaluated by American College of Rheumatology 20 (66/68 joint count) after 12 weeks of treatment.
The primary endpoint of this study is the American College of Rheumatology (ACR20) 20 improvement measured after 12 weeks of treatment with study drug. The ACR20 is a composite score defined as an improvement of 20% in the number of swollen and tender joints and a 20% improvement in 3 of the following 5: • Patient self-assessed disability by modified Health Assessment Questionnaire (mHAQ) • Physician Global assessment • Subject Global assessment • Patient pain assessment • Acute phase reactant (C-reactive protein [CRP]) Secondary efficacy endpoints were as follows: • ACR20 improvement measured after 4 and 8 weeks of treatment • Subgroup analysis of ACR20 results from patients enrolled with baseline CRP >1.5 mg/dL. • ACR50/70 improvement measured after 4, 8 and 12 weeks • Original Disease Activity Score (DAS) change from baseline (according to the European League Against Rheumatism [EULAR] Response Criteria). Note: the Original DAS was replaced with DAS28 • Change from baseline in: number of swollen/tender joints, morning stiffness duration. Subject and Physician Global assessments, pain assessed by Visual Analogue Scale (VAS), self-assessed physical disability (mHAQ), erythrocyte sedimentation rate (ESR) and CRP • The evaluation of pharmacokinetic (PK) and pharmacodynamic (PD) high sensitive CRP, TNF-a, interleukin-6 [IL-6] and anti-cyclic citrullinated peptide antibody [anti-CCP]) over time
This was a multicentre, multinational, dose-ranging, randomised, double-blind, multiple dose, placebo-controlled, parallel-group study of Rabeximod administered orally in a total of 225 enrolled patients with moderate or severe active RA. All patients must have been receiving weekly methotrexate treatment for at least 16 weeks (with unchanged doses for at least 8 weeks) up to Day 0 of study.
Diagnosis of RA was based on the American Rheumatism Association (ARA) 1987 revised criteria, having an ACR global functional class of 1 to 3, stable methotrexate dose of at least 15 mg per week and central laboratory CRP level at study entry of at least 1.5 mg/dL and clinical findings of active disease (at least 6 swollen and 6 tender joints to palpation). Individual patient duration in the study was approximately 126 days (a 14-day screening period, an 84-day treatment period [12 weeks], and a 28 day [4-week] follow-up period).
After meeting the inclusion and exclusion criteria and providing informed consent, patients were randomly assigned (1:1:1:1 ratio) to receive 1 of the following treatments: • 6.25 mg Rabeximod • 15 mg Rabeximod • 37.5 mg Rabeximod • Placebo
An assessment of tender and swollen joints was performed for the ACR response criteria. Joints to be evaluated for disease activity assessment (using the ACR 66/68 joint count) included the following: temporomandibular, sternoclavicular, acromioclavicular, shoulder, elbow, wrist, all 5 metacarpophalangeal joints, 4 proximal interphalangeal joints, 4 distal interphalangeal, thumb interphalangeal joint, hip (for tenderness only), knee, ankle, tarsus, 5 metatarsophalangeal, 4 proximal interphalangeal and foot thumb interphalangeal joints at each side. In accordance with the protocol, an independent joint reviewer performed the rheumatology examination, where possible. If an independent joint reviewer was not available, the same examiner performed all rheumatology examinations for a patient throughout the study.
Patient satisfaction in performing activities of daily living was assessed using the mHAQ. […]

[3] = system: patients with moderate or severe active rheumatoid arthritis; experiment: Phase II clinical trial: safety (AEs, physical examinations, vital signs, ECG)
From the text: The Phase II study was a randomised, parallel-group, double-blind, dose-ranging, placebo-controlled study of Rabeximod in patients with moderate or severe active RA with an inadequate response to methotrexate.
Safety assessments included AEs, vital signs, weight, physical examination, 12-lead ECG and safety laboratory tests (serum chemistry, haematology and urinalysis).
Safety measurements for this study included AEs, clinical laboratory tests, physical examinations, vital signs and resting 12-lead ECGs.

Cc1cc2nc3c4cc(Cl)ccc4n(CC(=O)NCCN(C)C)c3nc2cc1C [Rabeximod, 9-Chloro-2,3-dimethyl-6-(N,N-dimethylaminoethylamino-2-oxoethyl)-6H-indolo-[2,3-b]quinoxaline]
tolerability ([1]; multiple dose of 600 mg loading followed by 100 mg): less well tolerated due to phototoxicity reactions
tolerability ([1]; multiple oral doses up to a 200 mg loading dose followed by 50 mg maintenance dose): well tolerated
tolerability ([1]; single dose of 600 mg): less well tolerated due to phototoxicity reactions
tolerability ([1]; single oral doses up to 400 mg): well tolerated
percentage mean reduction in joint pain, comparison of dose groups ([2]; 15 mg group): best results
percentage of patients achieving ACR50, comparison of dose groups ([2]; 15 mg group): best results
reduction in duration of morning stiffness, comparison of dose groups ([2]; 15 mg group, especially at week 16): best results
percentage of patients achieving ACR50 response compared with placebo ([2]; "At Week" (number not given), 6.25, 15 and 37.5 mg groups): higher percentage
change from baseline in each component of the ACR response (joint count 66/68, Global assessments VAS, joint pain, HAQ-DI, CRP, ESR) ([2]; Rabeximod groups): notable decrease (improvement)
change in mean DAS28 score from baseline ([2]; Week 12, 6.25 mg group (placebo −0.983)): −1.063 points
change in mean DAS28 score from baseline ([2]; Week 12, 15 mg group (placebo −0.983)): −1.214 points
change in mean DAS28 score from baseline ([2]; Week 12, 37.5 mg group (placebo −0.983)): −1.204 points
proportion of patients achieving ACR20 compared with placebo ([2]; Week 12, Rabeximod groups): larger proportion
increases in the proportions of patients achieving ACR50 ([2]; Week 16): greater
percentage mean reduction from baseline in swollen (66) and tender (68) joint counts, Physician and Subject Global assessments ([2]; Week 16): notable improvements
percentage of patients achieving a good or moderate EULAR response ([2]; Week 16, 6.5 mg group (placebo 38.5%)): 37.8%
proportions of patients achieving ACR20, comparison of dose groups ([2]; Week 16, 15 mg group): best results
reduction in swollen/tender joint counts and Global assessments, comparison of dose groups ([2]; Week 16, 15 mg group): best results
percentage of patients achieving a good or moderate EULAR response ([2]; Week 16, 15 mg group (placebo 38.5%)): 67.7%
percentage of patients achieving a good or moderate EULAR response ([2]; Week 16, 37.5 mg group (placebo 38.5%)): 55.8%
proportions of patients achieving ACR20 ([2]; Week 16, Rabeximod groups): continued to increase
duration of morning stiffness compared with placebo ([2]; majority of time points, Rabeximod groups): greater reductions (improvement)
improvement in symptoms compared with placebo (plus methotrexate) ([2]; onset at least 8-12 weeks after first dose, further improvement at Week 16): greater improvement
percentage mean reduction from baseline in joint pain ([2]; week 1): notable
proportion of patients experiencing study drug-related AEs ([3]; 37.5 mg group (32 patients)): 58.2%
deaths during the study ([3]; 12 weeks treatment, 4 weeks follow-up): No deaths
proportion of patients experiencing study drug-related AEs ([3]; Rabeximod groups pooled (placebo 11.1%)): 34.5%
majority of changes in physical examinations ([3]; all occurred in the Rabeximod group, most reported as AEs): skin abnormalities
relation of skin abnormality events to dose ([3]; majority in 37.5 mg group, then 15 mg, then 6.25 mg): dose response
tolerability ([3]; once daily at 6.25, 15 and 37.5 mg, RA patients taking methotrexate): well-tolerated
changes in vital signs and 12-lead ECGs ([3]; over the course of the study): no notable changes
